Results as given in patent US11701362B2, “Compositions and methods of use of cis-4-[2-{[(3S,4R)-3-fluorooxan-4-yl]amino}-8-(2,4,6-trichloroanilino)-9H-purin-9-yl]-1- methylcyclohexane-1-carboxamide” (Celgene Corporation, priority 2017, dated 2023).
≈ marks a conversion by molar mass, not a printed value. Where a name gives a salt, the structure may show the parent alone. Blank lines part the entries; values can stand above or below the molecule they belong to.

How the values were obtained:
Type in all cases: physicochemical
[1] = Solubility of Compound 1 citrate in pH 6.5 phosphate buffer with SLS
Procedure: Solubility of Compound 1 was determined in various percentages of sodium lauryl sulfate (SLS). 0.03% SLS was selected as the media for dissolution condition 3. Samples were filtered using a 0.2 μm nylon syringe filter, and analyzed by UPLC-UV utilizing the method parameters listed in Table 9.

[2] = Dissolution of drug in capsule in 0.01N HCl and 0.001N HCl at 37° C.; conditions: for Compound 1 released: 125 mg capsule, 37° C., 60 minutes
Procedure: To assess the feasibility of using Compound 1 in a capsule to support FIH study, a dissolution study with a capsule containing 125 mg Compound 1 free base monohydrate was performed in the media of 0.01N HCl and 0.001N HCl at 37° C. Capsule shell shrinkage was observed. […] Blend in capsule or other formulation approaches may be necessary.
A dissolution study for citrate salt in a capsule in 0.01N HCl was also carried out.

[3] = Solubility study (water, SGF, SIF, preclinical vehicle, bio-relevant media); conditions: for Solubility, Concentration: at 24 hours
Procedure: (§1) Solubility Study: Compound 1 free base pKa was determined to be 5.14. […] Solubility in the preclinical formulation, 0.5% CMC/0.25% Tween 80, was determined to be 0.18 mg/ml at pH 8.1.

[4] = Solid state chemical and physical stability of free base monohydrate
Procedure: Chemical Stability Study: Solid state stability of Compound 1 free base monohydrate was evaluated at 80° C. for 2 weeks and 40° C./75% RH, 50° C./75% RH and 60° C. for up to 5 weeks.
This dehydrate form converted back to monohydrate immediately when samples were exposed to room temperature and RH>30%. If RH is in the range of 5-30%, the dehydrate form may take 1-3 days to convert back to monohydrate.

pKa determination = assay: pKa determination
Procedure: as §1

[5] = Solution and suspension stability; conditions: 37° C.
Procedure: The solution stability of Compound 1 free base in water, SGF (pH 1.3), SIF (pH 7.5), and 0.1N NaOH with and without light protection at 37° C. was tested.

[6] = Tablet dissolution in pH 2 phosphate buffer and pH 5 phosphate buffer with 0.1% sodium laureth sulfate; conditions: tablets, pH 5 phosphate buffer and 0.1% sodium laureth sulfate
[7] = Bulk and tap density and flow properties (Carr's Index, Hausner's Ratio)
Procedure: Needle-like particle shapes have poor powder flow and low densities. […] Reduced drug loadings (dilution of the poor flow component) improved flow characteristics of the resultant blend.
The 5 formulations covered drug loadings of 1.8-23.0% and 1-25 mg strengths. The bulk and tap densities for each formulation are included in Table 30.
Flow property scales for Carr's (Compressibility) Index and Hausner's Ratio are described in Table 37. The flow of the blends was assessed as very poor to passible.

dissolution compared with free base and citrate salt [6]: higher dissolution
SMILES: C[C@]1(C(N)=O)CC[C@@H](n2c(Nc3c(Cl)cc(Cl)cc3Cl)nc3cnc(N[C@@H]4CCOC[C@H]4F)nc32)CC1 (relative stereo) [HCl salt of Compound 1, cis-4-[2-{[(3S,4R)-3-fluorooxan-4-yl]amino}-8-(2,4,6-trichloroanilino)-9H-purin-9-yl]-1-methylcyclohexane-1-carboxamide]

pKa (pKa determination): ~5.1
Bulk Density [7]: 0.2 g/mL
Tap Density [7]: 0.38 g/mL
solubility ([3]; 0.5% CMC/0.25% Tween 80 (preclinical formulation), aqueous with cosolvent or surfactant or cyclodextrin, preclinical formulation 0.5% CMC/0.25% Tween 80, pH 8.1, read-out: solubility): 0.18 mg/mL (≈ 315 µM)
solubility ([3]; pH 4.5, aqueous buffer, read-out: solubility): ~0.25 mg/mL (≈ 438 µM)
solubility ([3]; simulated gastric fluid (SGF), simulated gastric fluid, simulated gastric fluids (SGF) (pH 1.9), read-out: solubility): 3.5 mg/mL (≈ 6130 µM)
solubility ([3]; simulated gastric fluid, low pH (0.1 N HCl), read-out: solubility): ~1.7 mg/mL (≈ 2980 µM)
solubility ([3]; simulated intestinal fluid (SIF), pH 7.3, fassgf or other biorelevant, read-out: solubility): 0.002 mg/mL (≈ 3.5 µM)
solubility ([3]; simulated intestinal fluids (SIF) (pH 7.3)): 0.002 mg/mL (≈ 3.5 µM)
solubility ([3]; water (pH 8.1), read-out: solubility): 0.003 mg/mL (≈ 5.26 µM)
SMILES: C[C@]1(C(N)=O)CC[C@@H](n2c(Nc3c(Cl)cc(Cl)cc3Cl)nc3cnc(N[C@@H]4CCOC[C@H]4F)nc32)CC1 [Compound 1, cis-4-[2-{[(3S,4R)-3-fluorooxan-4-yl]amino}-8-(2,4,6-trichloroanilino)-9H-purin-9-yl]-1-methylcyclohexane-1-carboxamide]

More lines, now with the values behind:

SMILES: C[C@]1(C(N)=O)CC[C@@H](n2c(Nc3c(Cl)cc(Cl)cc3Cl)nc3cnc(N[C@@H]4CCOC[C@H]4F)nc32)CC1 (relative stereo) [Compound 1 citrate, cis-4-[2-{[(3S,4R)-3-fluorooxan-4-yl]amino}-8-(2,4,6-trichloroanilino)-9H-purin-9-yl]-1-methylcyclohexane-1-carboxamide]
solubility ([1]; 0.01% SLS): 0.000 mg salt/mL
solubility ([1]; 0.02% SLS): 0.001 mg salt/mL
solubility ([1]; 0.03% SLS): 0.054 mg salt/mL
solubility ([1]; 0.05% SLS): 0.336 mg salt/mL
solubility ([1]; 0.1% SLS): 0.807 mg salt/mL
dissolution profile compared to freebase monohydrate ([2]; capsule in 0.01N HCl): better dissolution profile

SMILES: C[C@]1(C(N)=O)CC[C@@H](n2c(Nc3c(Cl)cc(Cl)cc3Cl)nc3cnc(N[C@@H]4CCOC[C@H]4F)nc32)CC1 (relative stereo) [Compound 1 free base monohydrate, cis-4-[2-{[(3S,4R)-3-fluorooxan-4-yl]amino}-8-(2,4,6-trichloroanilino)-9H-purin-9-yl]-1-methylcyclohexane-1-carboxamide]
Solubility, Concentration ([3]; FaSSGF): 2.81 mg/mL
Solubility, Concentration ([3]; FaSSIF): 0.26 mg/mL
Solubility, Concentration ([3]; FeSSGF): 0.004 mg/mL
Solubility, Concentration ([3]; FeSSIF): 2.07 mg/mL
pH @ 24 hr ([3]; solubility sample in FaSSGF): 1.84
pH @ 24 hr ([3]; solubility sample in FaSSIF): 6.48
pH @ 24 hr ([3]; solubility sample in FeSSGF): 6.31
pH @ 24 hr ([3]; solubility sample in FeSSIF): 4.94
solid state chemical stability ([4]; 80° C. for 2 weeks, 40° C./75% RH, 50° C./75% RH and 60° C. up to 5 weeks): chemically relatively stable
time for the dehydrate form to convert back to monohydrate ([4]; RH in the range of 5-30%): 1 to 3 days
physical stability ([4]; heated at 60 and 80° C.): lost water and converted to a dehydrate form
Compound 1 released ([2]; 0.001N HCl): 10%
Compound 1 released ([2]; 0.01N HCl): About 80%

SMILES: C[C@]1(C(N)=O)CC[C@@H](n2c(Nc3c(Cl)cc(Cl)cc3Cl)nc3cnc(N[C@@H]4CCOC[C@H]4F)nc32)CC1 (relative stereo) [Compound 1 free base, cis-4-[2-{[(3S,4R)-3-fluorooxan-4-yl]amino}-8-(2,4,6-trichloroanilino)-9H-purin-9-yl]-1-methylcyclohexane-1-carboxamide]
pKa (pKa determination): 5.14
solution stability, remaining ([5]; 0.1N NaOH without light protection, day 1): 88%
solution stability, remaining ([5]; 0.1N NaOH without light protection, day 4): 61%
solution stability, remaining ([5]; water, SGF (pH 1.3), SIF (pH 7.5), 0.1N NaOH, 4 days, all except 0.1N NaOH without light protection): > 95%
